Publication PMC8155176, “Reversible modulation of circadian time with chronophotopharmacology” (Nature Communications, 2021)

What was measured:
[1] = tested on: SCN explants; assay: Ex vivo circadian period, SCN explants of Per2::Luc knock-in mice; parameters: species or system mouse; details: 18 µM
Experimental: Next, we applied the light-dependent period control to the tissue level using explants of Per2::Luc knock-in reporter mice. The mice express PER2-luciferase fusion protein under control of the endogenous Per2 promoter. […] The spleen explants were treated with thermally adapted trans-9, then irradiated with green light (λmax = 530 nm) or kept in dark, and luminescence rhythms were measured (Fig. 6a, b). […] In addition to the peripheral clock in spleen, we investigated the effect of compound 9 on the central clock in the hypothalamic suprachiasmatic nucleus (SCN) that controls behavioral rhythms. […]
(§1) Fig. 6 Ex vivo photo-modulation of the circadian period in mouse tissue explants. a–c The spleen explants of the Per2::Luc knock-in reporter mice were applied with 12 µM compound 9 and irradiated with green light (λmax = 530 nm) for 0 min (dark, black) or 30 min (green). Luminescence rhythms were then monitored and shown in a (mean of n = 5 for dark and n = 6 for green light). […] Luminescence is given in arbitrary units. n = 5 biologically independent samples for dark and n = 6 for green light. […] Luminescence rhythms of a representative sample for each condition are shown in d. […]
To harvest the suprachiasmatic nucleus (SCN), Per2::Luc heterozygote neonatal mice at postnatal day four to seven were euthanized. […] Circadian period was calculated by a cosine curve fitting. […]

[2] = tested on: spleen explants; assay: Ex vivo circadian period, spleen explants of Per2::Luc knock-in mice; parameters: species or system mouse; details: 12 µM
Experimental: Next, we applied the light-dependent period control to the tissue level using explants of Per2::Luc knock-in reporter mice. The mice express PER2-luciferase fusion protein under control of the endogenous Per2 promoter. […] The spleen explants were treated with thermally adapted trans-9, then irradiated with green light (λmax = 530 nm) or kept in dark, and luminescence rhythms were measured (Fig. 6a, b). […] In addition to the peripheral clock in spleen, we investigated the effect of compound 9 on the central clock in the hypothalamic suprachiasmatic nucleus (SCN) that controls behavioral rhythms. […] Together, compound 9 enabled light-dependent inducible control of the circadian period at both cellular and tissue levels.
as §1, with “light). Baseline-subtracted data are shown in b. Period changes compared to a DMSO control are plotted in c.” for “light).”

SMILES: CC(C)n1cnc2c(NCc3ccc(F)c(/N=N/c4c(F)cccc4F)c3F)ncnc21 [Compound 9]
- period effect of thermally adapted compound ([1]; applied on day 4): induced period lengthening
- period effect upon green light irradiation ([1]; green light on day 8): reduced
- period effect after green light irradiation ([2]; 530 nm 30 min): suppressed the period-lengthening effect
- period effect vs DMSO control, dark ([2]; dark): period lengthening
